Measured values reported in patent publication US20250161338A1, “Compounds for Anti-aging Intervention” (AGENCY FOR SCIENCE, TECHNOLOGY AND RESEARCH, priority 2022, published 2025).
Counter-ions that a name gives are not always drawn. Residues, ends and D or L forms follow the SMILES beside them.

Key:
[1] = tested on: prototrophic yeast strain (CEN.PK113-7D); assay: Yeast outgrowth in YPD liquid medium (CLS of aged cells); format: cell-based, Saccharomyces cerevisiae; settings: concentration tested 100 μM; OD600 nm after 24 h in YPD at 30° C.; age point day 14
Method in brief: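 Cultures aged at 30 °C in SD medium with double-diluted rapamycin (0–10 nM) or sugars/polyols (0–8 mM). On day 14, 3 µL of culture was transferred into 200 µL YPD and outgrowth read as OD600. Survival expressed relative to day 1 outgrowth (100%).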

[2] = tested on: prototrophic yeast strain (CEN.PK113-7D); assay: Propidium iodide fluorescence-based CLS method in yeast (incl. high-throughput screening); format: cell-based, Saccharomyces cerevisiae; settings: concentration tested 100 μM; for Yeast CLS increase: Yes/No call of the screen; for PI intensity: solvent DMSO or water, chronological age point Day 7 (72 h growth = Day 1), lower = more survival;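 for PI intensity: untreated reference is eight DMSO and water control wells per plate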
Method in brief: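 CEN.PK113-7D aged in SD medium at 30 °C with compounds (rapamycin 0–10 nM; sugars 0–8 mM; screen at single concentrations). At each age point cells were stained with 5 μg/mL PI for 15 min; fluorescence was normalized to OD600, background-subtracted, and survival scaled against boiled-cell control.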

| SMILES | Outgrowth [1] | Yeast CLS increase [2] | PI intensity [2] |
| --- | --- | --- | --- |
| C[C@@H]1O[C@@H](O[C@H]2[C@H](O[C@H]3CC[C@@]4(C)[C@@H](CC[C@]5(C)[C@@H]4CC=C4[C@@H]6CC(C)(C)CC[C@]6(C(=O)O[C@@H]6O[C@H](CO[C@@H]7O[C@H](CO)[C@@H](O[C@@H]8O[C@@H](C)[C@H](O)[C@@H](O)[C@H]8O)[C@H](O)[C@H]7O)[C@@H](O)[C@H](O)[C@H]6O)CC[C@]45C)[C@]3(C)CO)OC[C@H](O)[C@@H]2O)[C@H](O)[C@H](O)[C@H]1O [Hederacoside C] | 0.1 | No | 73,515.9 |
| CC1(C)CC[C@]2(C(=O)O)CC[C@]3(C)C(=CC[C@@H]4[C@@]5(C)CC[C@H](O)[C@@](C)(CO)[C@@H]5CC[C@]43C)[C@@H]2C1 [Hederagenin] | 0.1 | No | 73,281.0 |
| CC[C@H](C)[C@@H]1NC(=O)[C@@H]2CCCN2C(=O)[C@@H]2CCCN2C(=O)[C@@H]2CCCN2C(=O)[C@H](CC(C)C)NC(=O)CNC(=O)CNC(=O)[C@H](Cc2ccccc2)NC1=O [Heterophyllin B] (cyclo(FGGLPPPI)) | 0.2 | No | 61,587.8 |
| O=c1cc(O)cc(/C=C/c2ccc(O)c(O)c2)o1 [Hispidin] | 0.1 | No | 67,098.8 |
| COc1cc(CC(=O)O)ccc1O [Homovanillic acid] | 0.1 | No | 65,033.1 |
| CCCCCCCCCCCCCCCC(=O)NCCO [Impulsin] | 0.1 | No | 71,903.7 |
| C=C1C(=O)O[C@@H]2C[C@@]3(C)CCCC(=C)[C@@H]3C[C@H]12 [Isoalantolactone] | 0.1 | No | 94,566.8 |
| O=C(/C=C/c1ccc(O)c(O)c1)O[C@@H]1C[C@](O)(C(=O)O)C[C@@H](OC(=O)/C=C/c2ccc(O)c(O)c2)[C@H]1O [Isochlorogenic acid A] | 0.1 | No | 63,157.7 |
| Nc1nccc(=O)[nH]1 [Isocytosine] | 0.1 | No | 68,813.6 |
| O=C(O)[C@H]1O[C@@H](Oc2c(-c3ccc(O)cc3)oc3cc(O)cc(O)c3c2=O)[C@H](O)[C@@H](O)[C@@H]1O [Kaempferol 3-O-β-D-glucuronide] | 0.1 | No | 62,874.6 |
| Cl.N[C@@H](CS)C(=O)O.O [L-Cysteine (hydrochloride hydrate)] | 0.1 | No | 69,216.4 |
| N[C@@H](CCO)C(=O)O [L-Homoserine] | 0.1 | No | 60,922.1 |
| Nc1ccccc1C(=O)C[C@H](N)C(=O)O [L-Kynurenine] | 0.1 | No | 72,824.1 |
| Cl.NCCC[C@H](N)C(=O)O [L-Ornithine (hydrochloride)] | 0.1 | No |  |
| C[Se]CC[C@H](N)C(=O)O [L-SelenoMethionine] | 1.2 | Yes | 31,240.0 |
| Br.CCN1C[C@]2(OC(=O)c3ccccc3NC(C)=O)CC[C@H](OC)[C@@]34[C@@H]2C[C@@H]([C@@H]13)[C@@]1(O)C[C@H](OC)[C@H]2C[C@@H]4[C@]1(O)[C@H]2OC [Lappaconitine (hydrobromide)] | 0.1 | No | 76,000.0 |
| CCC[C@@H]1C[C@@H](C(=O)N[C@@H]([C@H]2O[C@H](SC)[C@H](O)[C@@H](O)[C@H]2O)[C@@H](C)O)N(C)C1 [Lincomycin (hydrochloride monohydrate), reference compound] | 0.1 | No | 67,751.3 |
| COC(=O)CC(C)=O [Methyl acetylacetate] | 0.1 | No | 64,956.3 |
